Legend:
Experiment in all cases: Test A post-emergence
Design in all cases: key: 0 = no effect, 10 = maximum effect; letter = response symbol
rice = type: in vivo
In short: (§1)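 Seeds and tubers were treated preemergence in a growth medium with compound in a nonphytotoxic solvent, against untreated controls; emerged plants such as two-leaf barnyardgrass and five-leaf cotton were sprayed postemergence, against solvent-sprayed controls. After sixteen days in a greenhouse, response was rated visually from 0 to 10.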

soybean = type: in vivo
In short: as §1

sorghum = type: in vivo
In short: as §1

crabgrass = type: in vivo, Digitaria spp.
In short: as §1

barnyardgrass = type: in vivo, Echinochloa crusgalli
In short: as §1

cocklebur = type: in vivo, Xanthium spp.
In short: as §1

morningglory = type: in vivo, Ipomoea spp.
In short: as §1

bush bean = type: in vivo, bush beans; conditions: 0.4 kg/ha
corn = type: in vivo
In short: as §1

cassia = type: in vivo, Cassia tora
In short: as §1

nutsedge = type: in vivo, Cyperus rotundus
In short: as §1

wheat = type: in vivo
In short: as §1

wild oats = type: in vivo, Avena fatua
In short: as §1

cotton = type: in vivo
In short: as §1

Row | SMILES | response rating (crabgrass; 0.4 kg/ha) | response rating (cocklebur; 0.4 kg/ha) [C] | response rating (morningglory; 0.4 kg/ha) [C] | response rating (bush bean) [C] | response rating (corn; 0.4 kg/ha) | response rating (rice; 0.4 kg/ha) | response rating (soybean; 0.4 kg/ha) | response rating (sorghum; 0.4 kg/ha) | response rating (cassia; 0.4 kg/ha) | response rating (nutsedge; 0.4 kg/ha) | response rating (barnyardgrass; 0.4 kg/ha) | response rating (wheat; 0.4 kg/ha) | response rating (wild oats; 0.4 kg/ha) | response rating (cotton; 0.4 kg/ha) [C] | further results
1 | Cc1cc(C)nc(NC(=O)NS(=O)(=O)c2ccccc2C(=O)O)n1 [drawing 444] | 2G | – | – | – | – | – | – | – | – | – | – | – | – | – | response rating (rice; 10 kg/ha): 5G; response rating (soybean; 10 kg/ha): 1C; response rating (sorghum; 10 kg/ha): 3G; response rating (barnyardgrass; 10 kg/ha): 2G
2 | COC(=O)c1ccccc1S(=O)(=O)NC(=O)Nc1nc(OC)nc(OC)n1 [drawing 416] | 9C | 9 | 10 | 9 | 10C | 10C | 9C | 9C | 9C | 9C | 10C | – | – | – | –
3 | COc1cc(C)nc(NC(=O)NS(=O)(=O)c2ccccc2C(=O)N(C)C)n1 [drawing 465] | – | – | 10 | – | 9C | 9C | 9C | 9C | 9C | – | 10C | 9C | 9C | – | –
4 | COc1cc(C)nc(NC(=O)NS(=O)(=O)c2ccccc2C(=O)SC2CCCCC2)n1 [drawing 476] | – | 9 | 10 | 9 | – | 9C | – | 9C | 9C | 10C | 9C | – | 9C | 9 | –
5 | CCCCCCCCCCOC(=O)c1ccccc1S(=O)(=O)NC(=O)Nc1nc(C)nc(OC)n1 [drawing 430] | 0 | – | – | – | 7H | 6G | 6H | – | – | 2G | 2H | 0 | 0 | – | –
6 | CCOC(=O)c1ccccc1S(=O)(=O)NC(=O)Nc1nc(OC)cc(OC)n1 [drawing 441] | – | – | – | – | – | – | – | – | – | – | – | – | – | – | response rating (cocklebur; 2 kg/ha): 9C; response rating (morningglory; 2 kg/ha): 10C; response rating (corn; 2 kg/ha): 9C; response rating (rice; 2 kg/ha): 9C; response rating (cotton; 2 kg/ha): 9C; response rating (sorghum; 2 kg/ha): 10C; response rating (wheat; 2 kg/ha): 9C; response rating (crabgrass; 2 kg/ha): 9C; response rating (cassia; 2 kg/ha): 9C; response rating (nutsedge; 2 kg/ha): 9C; response rating (wild oats; 2 kg/ha): 9C; response rating (barnyardgrass; 2 kg/ha): 10C
7 | CCCCOC(=O)c1ccccc1S(=O)(=O)NC(=O)Nc1nc(C)cc(OC)n1 [drawing 440] | 3G | 9 | 9 | – | – | – | – | – | – | – | 10C | – | 8G | – | response rating (cocklebur; 2 kg/ha): 10C; response rating (morningglory; 2 kg/ha): 10C; response rating (corn; 2 kg/ha): 9C; response rating (rice; 2 kg/ha): 8C; response rating (soybean; 2 kg/ha): 9C; response rating (sorghum; 2 kg/ha): 9C; response rating (wheat; 2 kg/ha): 8C; response rating (cassia; 2 kg/ha): 9C; response rating (nutsedge; 2 kg/ha): 9C; response rating (barnyardgrass; 2 kg/ha): 10C
8 | COc1nc(NC(=O)NS(=O)(=O)c2ccccc2C(=O)OC(C)C)nc(OC)n1 [drawing 438] | 6G | 10 | 10 | – | – | 8C | – | – | 9C | 9C | 8C | 2C | 2C | 9 | –
9 | COc1cc(C)nc(NC(=O)NS(=O)(=O)c2ccccc2C(=O)OC(C)C)n1 [drawing 437] | – | 10 | 9 | – | 9C | 8C | – | 10C | 9C | 9C | 10C | – | – | 10 | –
10 | COC(=O)c1ccccc1S(=O)(=O)NC(=O)Nc1nc(OC)cc(OC(C)C(=O)OC)n1 (stereo not drawn) [drawing 468] | 9C | – | 9 | 9 | 9C | 9C | 9C | 9C | 9C | 9C | 9C | 9C | 9C | – | –
11 | COc1cc(OC)nc(NC(=O)NS(=O)(=O)c2ccccc2C(=O)OC(C)C)n1 [drawing 436] | 6C | 10 | 10 | – | – | 7C | – | 9C | 9C | 9C | 9C | – | 6C | 9 | –
12 | CCCCCCCCCCOC(=O)c1ccccc1S(=O)(=O)NC(=O)Nc1nc(OC)cc(OC)n1 [drawing 427] | 2G | – | 1 | – | – | 8G | 1H | 9G | 5G | 2G | – | 1C | 1C | – | –
13 | CCCCCCCCCCOC(=O)c1ccccc1S(=O)(=O)NC(=O)Nc1nc(OC)nc(OC)n1 [drawing 429] | 3G | – | – | – | 6H | 2G | 7G | 7H | 5G | 3G | 1C | 0 | 0 | – | –
14 | CCOC(=O)c1ccccc1S(=O)(=O)NC(=O)Nc1nc(OC)cc(OC)n1 [drawing 442] | – | 9 | 10 | – | 9C | 9C | – | 9C | 9C | 9C | 10C | 9C | 9C | 9 | –
15 | CCCCOC(=O)c1ccccc1S(=O)(=O)NC(=O)Nc1nc(OC)cc(OC)n1 [drawing 439] | – | 9 | 9 | – | – | – | – | – | – | – | 9C | – | – | – | response rating (cocklebur; 2 kg/ha): 9C; response rating (morningglory; 2 kg/ha): 10C; response rating (corn; 2 kg/ha): 9C; response rating (rice; 2 kg/ha): 9C; response rating (cotton; 2 kg/ha): 9C; response rating (sorghum; 2 kg/ha): 9C; response rating (wheat; 2 kg/ha): 9C; response rating (cassia; 2 kg/ha): 9C; response rating (nutsedge; 2 kg/ha): 9C; response rating (wild oats; 2 kg/ha): 9C; response rating (barnyardgrass; 2 kg/ha): 10C
16 | COC(=O)c1ccccc1S(=O)(=O)NC(=O)Nc1nnc(C)c(C)n1 [drawing 417] | – | – | – | – | – | – | – | – | – | – | – | – | – | – | response rating (cocklebur; 2 kg/ha): 9C; response rating (rice; 2 kg/ha): 9C; response rating (soybean; 2 kg/ha): 9C; response rating (sorghum; 2 kg/ha): 9C; response rating (wheat; 2 kg/ha): 10C; response rating (crabgrass; 2 kg/ha): 9C; response rating (cassia; 2 kg/ha): 9C; response rating (nutsedge; 2 kg/ha): 9C; response rating (wild oats; 2 kg/ha): 9C; response rating (barnyardgrass; 2 kg/ha): 9C
17 | COCCCOc1cc(C)nc(NC(=O)NS(=O)(=O)c2ccccc2C(=O)OC)n1 [drawing 470] | 9C | – | – | 9 | 9C | 8C | 8C | 9C | 9C | 9C | 9C | – | – | – | –
18 | COc1cc(C)nc(NC(=O)NS(=O)(=O)c2ccccc2C(=O)OCCOCCOCCCl)n1 [drawing 448] | – | 9 | 10 | 9 | – | 8C | 8C | – | 9C | – | 10C | 9C | 9C | 9 | –
19 | C=CCOC(=O)c1ccccc1S(=O)(=O)NC(=O)Nc1nc(C)nc(OC)n1 [drawing 451] | – | 10 | 10 | 9 | 9C | 9C | 9C | 9C | 9C | – | 9C | 9C | 9C | – | –
20 | COc1nc(NC(=O)NS(=O)(=O)c2ccccc2C(=O)OCCCl)nc(OC)n1 [drawing 422] | 2C | 10 | 10 | 9 | – | 6G | – | – | 10C | 10C | – | 1C | – | 9 | –

Reference: patent US4383113A, “Agricultural sulfonamides” (E. I. Du Pont de Nemours and Company, priority 1981, dated 1983)
